# From patent US9605013B2, “Derivatives of hemin with antibacterial and antiviral activity” (OBSCHESTVO S OGRANICHENNOI OTVETSTVENNOSTIYU …, priority 2011, dated 2017)
# Tested on: Enterococcus faecalis BKM B-871
# Test: Antibacterial activity, serial dilutions in liquid MH medium
# Assay type: cell-based
# Conditions: for MIC: MH medium, 20 h, 37° C., 100% growth inhibition; for MBC: no colonies on agarized MH medium
# Outline: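 Broth microdilution in Mueller-Hinton medium at 37 °C with stirring, using exponential-phase cultures seeded at 5×10^4 to 1×10^5 cells/mL with twofold serial compound dilutions. Growth inhibition read as A595 after 20 h, corrected for compound absorbance; MIC and MBC determined.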
Compound,MIC [µM],MBC [µM]
"6,7-bis-[(Diamide N^α-L-Arginyl)-L-glutamyl]-Protohemin (IX)",25,50
"C=CC1=C(C)c2cc3[n-]c(cc4[n-]c(cc5nc(cc1n2)C(C)=C5C=C)c(C)c4CCC(=O)N[C@@H](CCCNC(=N)N)C(N)=O)c(CCC(=O)N[C@@H](CCCNC(=N)N)C(N)=O)c3C.[Cl-].[Fe+3] [II, 6,7-bis-(Amide N^α-Arginyl)-Protohemin (IX)]",6.3,12.5
